Results from ChEMBL document CHEMBL4033619, “Autophagy antagonizes apoptosis induced by flavan enantiomers from Daphne giraldii in hepatic carcinoma cells in vitro” (Eur J Med Chem, 2017).

Experiments:
Format in all cases: functional, cell-based
HepG2 [1] = assay: Cytotoxicity against human HepG2 cells by MTT assay
MCF7 [2] = assay: Cytotoxicity against human MCF7 cells by MTT assay
Hep 3B2 [3] = assay: Growth inhibition of human Hep3B cells after 48 hrs by MTT assay
MCF7 [4] = assay: Growth inhibition of human MCF7 cells after 48 hrs by MTT assay
HepG2 [5] = assay: Growth inhibition of human HepG2 cells after 48 hrs by MTT assay
A549 [6] = assay: Cytotoxicity against human A549 cells by MTT assay
A549 [7] = assay: Growth inhibition of human A549 cells after 48 hrs by MTT assay
Hep 3B2 [8] = assay: Cytotoxicity against human Hep3B cells by MTT assay

SMILES | IC50 (HepG2 [1]) [µM] | IC50 (MCF7 [2]) [µM] | growth inhibition (GI) (Hep 3B2 [3]) | growth inhibition (GI) (MCF7 [4]) | growth inhibition (GI) (HepG2 [5]) | IC50 (A549 [6]) [µM] | growth inhibition (GI) (A549 [7]) | IC50 (Hep 3B2 [8]) [µM]
CC1(C)C=Cc2c(C3CCc4ccc(O)cc4O3)ccc(O)c2O1 (racemic) | 92.8 | > 100 | Dose-dependent effect | Dose-dependent effect | Dose-dependent effect | > 100 | Dose-dependent effect | 57.4
CC(C)=CCc1c([C@@H]2CCc3ccc(O)cc3O2)cc2c(c1O)OC(C)(C)C=C2 [KAZINOL B] | 58.4 | > 100 | Dose-dependent effect | Dose-dependent effect | Dose-dependent effect | > 100 | Dose-dependent effect | 39
CC1(C)CCc2c(C3CCc4ccc(O)cc4O3)ccc(O)c2O1 (racemic) | > 100 | > 100 | Dose-dependent effect | Dose-dependent effect | Dose-dependent effect | > 100 | Dose-dependent effect | 51
CC(C)=CCc1c([C@@H]2CCc3ccc(O)cc3O2)ccc(O)c1O | > 100 | > 100 | Dose-dependent effect | Dose-dependent effect | Dose-dependent effect | > 100 | Dose-dependent effect | 62.2
CC(C)=CCc1c(C2CCc3ccc(O)cc3O2)ccc(O)c1O (racemic) | > 100 | > 100 | Dose-dependent effect | Dose-dependent effect | Dose-dependent effect | > 100 | Dose-dependent effect | 81.2
CC1(C)CCc2c([C@H]3CCc4ccc(O)cc4O3)ccc(O)c2O1 | > 100 | > 100 | Dose-dependent effect | Dose-dependent effect | Dose-dependent effect | > 100 | Dose-dependent effect | 41.7
